Consider 31 molecules from US9951065B2 (Gilead Sciences, Inc., priority 2015, dated 2018).

Where only a bound is given, the exact number is not on record here.

The target in the first assay is T1, IDO1 (Homo sapiens, UniProt P14902).
T1 construct: HeLa cells were treated with a test compound in the presence of IFNγ, which induces IDO1 expression; host or cells: H1-HeLa cells, IDO1 induced with IFNγ
T1 sequence (P14902 whole entry): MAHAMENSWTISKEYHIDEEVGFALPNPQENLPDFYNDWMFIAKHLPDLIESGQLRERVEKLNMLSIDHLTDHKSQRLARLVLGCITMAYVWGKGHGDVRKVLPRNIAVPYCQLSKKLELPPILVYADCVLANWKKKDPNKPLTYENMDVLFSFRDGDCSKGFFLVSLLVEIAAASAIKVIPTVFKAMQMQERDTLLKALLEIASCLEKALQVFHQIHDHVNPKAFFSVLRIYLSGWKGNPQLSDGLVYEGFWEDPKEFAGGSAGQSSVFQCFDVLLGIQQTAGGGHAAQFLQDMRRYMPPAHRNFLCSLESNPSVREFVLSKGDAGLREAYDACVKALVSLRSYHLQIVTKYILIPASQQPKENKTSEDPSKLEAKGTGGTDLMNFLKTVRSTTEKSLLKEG
Kind of assay: Cell-based (HeLa) assay for measurement of IDO1 inhibition (kynurenine levels in supernatant after IFNγ induction). The note with it: HeLa cells, IFNγ-induced IDO1, kynurenine in supernatant after 48 hour incubation; geometric mean of a minimum of four determinations. An outline of the steps:
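HeLa cells, 1,250 per well, treated with compound (0.5% DMSO final) plus IFNγ to induce IDO1, for 48 h. Supernatant kynurenine measured by TCA hydrolysis at 60 °C, then p-dimethylaminobenzaldehyde, absorbance 480 nm. EC50 from a four-parameter fit normalized to −/+IFNγ controls; geometric mean of at least four runs.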
On to `O/N=C(\Nc1ccc(F)c(Cl)c1)c1ccnc2nc(C3CC3)[nH]c12` [Example 109, N-(3-Chloro-4-fluorophenyl)-2-cyclopropyl-N′-hydroxy-1H-imidazo[4,5-b]pyridine-7-carboximidamide], for which a half-maximal effect (EC50) was put at 1390 nM. In other words, the single-digit micromolar range.
The same measure, in the same setting: under `O/N=C(\Nc1ccc(F)c(C(F)(F)F)c1)c1ccnc2nc[nH]c12` [Example 83, N-(4-Fluoro-3-(trifluoromethyl)phenyl)-N′-hydroxy-1H-imidazo[4,5-b]pyridine-7-carboximidamide] stands 315 nM.
For `CNCCc1nc2nccc(/C(=N/O)Nc3ccc(F)c(Cl)c3)c2[nH]1` [Example 188, N-(3-Chloro-4-fluorophenyl)-N′-hydroxy-2-(2-(methylamino)ethyl)-1H-imidazo[4,5-b]pyridine-7-carboximidamide], the EC50 (commonly the concentration at which the effect is half-maximal) came out at 1510 nM.
Turning to `CC(=O)NCCc1nc2nccc(/C(=N/O)Nc3ccc(F)c(Cl)c3)c2[nH]1` [Example 270, N-(2-(7-(N-(3-chloro-4-fluorophenyl)-N′-hydroxycarbamimidoyl)-1H-imidazo[4,5-b]pyridin-2-yl)ethyl)acetamide], the EC50 is above 10000 nM.
`O/N=C(\Nc1ccc(F)c(Cl)c1)c1ccnc2nc(CN3CCOCC3)[nH]c12` [Example 112, N-(3-Chloro-4-fluorophenyl)-N′-hydroxy-2-(morpholinomethyl)-1H-imidazo[4,5-b]pyridine-7-carboximidamide] came in with a concentration for a half-maximal effect (EC50) of 9530 nM.
On the same count and under the same terms, to `COCCCNCc1nc2nccc(/C(=N/O)Nc3ccc(F)c(Cl)c3)c2[nH]1` [Example 120, N-(3-Chloro-4-fluorophenyl)-N′-hydroxy-2-(((3-methoxypropyl)amino)methyl)-1H-imidazo[4,5-b]pyridine-7-carboximidamide] belongs 1330 nM; to `O/N=C(\Nc1ccc(OC(F)(F)F)cc1)c1ccnc2nc[nH]c12` [Example 66, N′-Hydroxy-N-(4-(trifluoromethoxy)phenyl)-1H-imidazo[4,5-b]pyridine-7-carboximidamide], 4870 nM.
Molecule `O/N=C(\Nc1ccc(Cl)c(Br)c1)c1ccnc2nc[nH]c12` [Example 85, N-(3-Bromo-4-chlorophenyl)-N′-hydroxy-1H-imidazo[4,5-b]pyridine-7-carboximidamide] came in with an EC50 of 462 nM.
As to `NC1=NCCN1CCc1nc2nccc(/C(=N/O)Nc3ccc(F)c(Cl)c3)c2[nH]1` [Example 209, 2-(2-(2-amino-4,5-dihydro-1H-imidazol-1-yl)ethyl)-N-(3-chloro-4-fluorophenyl)-N′-hydroxy-1H-imidazo[4,5-b]pyridine-7-carboximidamide], a half-maximal effect (EC50) was put at 5000 nM. This EC50 lies about 11-fold higher than the previous one.
As for `O/N=C(\Nc1ccc(F)c(Cl)c1)c1ccc(Cl)c2nc[nH]c12` [Example 6, 4-Chloro-N-(3-chloro-4-fluorophenyl)-N′-hydroxy-1H-benzo[d]imidazole-7-carboximidamide], the response was half-maximal at 793 nM (EC50).
`CNCCc1nc2c(/C(=N/O)Nc3ccc(F)c(Cl)c3)cc(F)c(F)c2[nH]1` [Example 57, N-(3-Chloro-4-fluorophenyl)-6,7-difluoro-N′-hydroxy-2-(2-(methylamino)ethyl)-1H-benzo[d]imidazole-4-carboximidamide]: the concentration for a half-maximal effect (EC50) came out at 1090 nM.
In turn, `O/N=C(\Nc1ccc(F)c(Cl)c1)c1ccnc2nc(CNCC(F)F)[nH]c12` [Example 142, N-(3-Chloro-4-fluorophenyl)-2-(((2,2-difluoroethyl)amino)methyl)-N′-hydroxy-1H-imidazo[4,5-b]pyridine-7-carboximidamide] gave an EC50 of 5160 nM.
Still for that read-out and setting: under `O/N=C(\Nc1cccc(Br)c1)c1ccnc2nc(CCN3CCCC3)[nH]c12` [Example 269, N-(3-bromophenyl)-N′-hydroxy-2-(2-(pyrrolidin-1-yl)ethyl)-1H-imidazo[4,5-b]pyridine-7-carboximidamide] stands 979 nM; under `O/N=C(\Nc1ccc(F)c(Cl)c1)c1ccnc2nc(C3CCCN3)[nH]c12` (stereo not shown) [Example 152, N-(3-Chloro-4-fluorophenyl)-N′-hydroxy-2-(pyrrolidin-2-yl)-1H-imidazo[4,5-b]pyridine-7-carboximidamide], 4040 nM; under `O/N=C(\Nc1ccc(F)c(Cl)c1)c1cc(F)c(F)c2nc(N3CCOCC3)[nH]c12` [Example 32, N-(3-Chloro-4-fluorophenyl)-4,5-difluoro-N′-hydroxy-2-morpholino-1H-benzo-[d]imidazole-7-carboximidamide], 9280 nM.
On to `CC(C)NCc1nc2c(F)ccc(/C(=N/O)Nc3ccc(F)c(Cl)c3)c2[nH]1` [Example 289, N-(3-chloro-4-fluorophenyl)-4-fluoro-N′-hydroxy-2-((isopropylamino)methyl)-1H-benzo[d]imidazole-7-carboximidamide], for which a half-maximal response (EC50) required 2230 nM.
For `O/N=C(\Nc1ccc(F)c(Cl)c1)c1ccc(F)c2nc(NCCN3CCOCC3)[nH]c12` [Example 34, N-(3-Chloro-4-fluorophenyl)-4-fluoro-N′-hydroxy-2-((2-morpholinoethyl)amino)-1H-benzo[d]imidazole-7-carboximidamide], the 50% effective concentration (EC50) turned out to be 6740 nM.
In turn, `NCCc1nc2c(F)c(F)cc(/C(=N/O)Nc3ccc(F)c(Cl)c3)c2[nH]1` [Example 211, 2-(2-aminoethyl)-N-(3-chloro-4-fluorophenyl)-4,5-difluoro-N′-hydroxy-1H-benzo[d]imidazole-7-carboximidamide] returned a 50% effective concentration (EC50) above 10000 nM.
Still for that read-out and setting: to `CC(CN1CCOCC1)Nc1nc2c(F)c(F)cc(/C(=N/O)Nc3ccc(F)c(Cl)c3)c2[nH]1` (stereo not shown) [Example 37, N-(3-Chloro-4-fluorophenyl)-4,5-difluoro-N′-hydroxy-2-((1-morpholinopropan-2-yl)amino)-1H-benzo[d]imidazole-7-carboximidamide] belongs 514 nM; to `O/N=C(\Nc1ccc(F)c(Cl)c1)c1ccnc2nc(CCN3CCCCC3)[nH]c12` [Example 192, N-(3-Chloro-4-fluorophenyl)-N′-hydroxy-2-(2-(piperidin-1-yl)ethyl)-1H-imidazo[4,5-b]pyridine-7-carboximidamide], 241 nM; to `O/N=C(\Nc1ccc(F)c(Cl)c1)c1ccnc2nc(CNCC(F)(F)F)[nH]c12` [Example 118, N-(3-Chloro-4-fluorophenyl)-N′-hydroxy-2-(((2,2,2-trifluoroethyl)amino)methyl)-1H-imidazo[4,5-b]pyridine-7-carboximidamide], 4640 nM.

Staying with this assay, now noted: HeLa cells, IFNγ-induced IDO1, kynurenine in supernatant, 48 hour incubation; geometric mean of a minimum of four determinations.
Molecule `CN1CC[C@@H](Nc2nc3c(F)c(F)cc(/C(=N/O)Nc4ccc(F)c(Cl)c4)c3[nH]2)C1` [Example 457, (R)—N-(3-chloro-4-fluorophenyl)-4,5-difluoro-N′-hydroxy-2-((1-methylpyrrolidin-3-yl)amino)-1H-benzo[d]imidazole-7-carboximidamide] displayed a 50% effective concentration (EC50) of 271 nM.
Take `CN(C)c1ccccc1CNc1nc2c(F)c(F)cc(/C(=N/O)Nc3ccc(F)c(Cl)c3)c2[nH]1` [Example 348, N-(3-chloro-4-fluorophenyl)-2-((2-(dimethylamino)benzyl)amino)-4,5-difluoro-N′-hydroxy-1H-benzo[d]imidazole-7-carboximidamide]: the half-maximal effective concentration (EC50) is 3430 nM.
`CCC(CC)CN(C)CCNc1nc2c(F)c(F)cc(/C(=N/O)Nc3ccc(F)c(Cl)c3)c2[nH]1` [Example 397, N-(3-chloro-4-fluorophenyl)-2-((2-((2-ethylbutyl)(methyl)amino)ethyl)amino)-4,5-difluoro-N′-hydroxy-1H-benzo[d]imidazole-7-carboximidamide] registered a concentration for a half-maximal effect (EC50) of 1320 nM.
Still for that read-out and setting: under `CN(CCNc1nc2c(F)c(F)cc(/C(=N/O)Nc3ccc(F)c(Cl)c3)c2[nH]1)Cc1ccccc1` [Example 390, 2-((2-(benzyl(methyl)amino)ethyl)amino)-N-(3-chloro-4-fluorophenyl)-4,5-difluoro-N′-hydroxy-W-benzo[d]imidazole-7-carboximidamide] stands 1020 nM.
`CC(CNc1nc2c(F)c(F)cc(/C(=N/O)Nc3ccc(F)c(Cl)c3)c2[nH]1)N1CCOCC1` (stereo not shown) [Example 377, N-(3-chloro-4-fluorophenyl)-4,5-difluoro-N′-hydroxy-2-((2-morpholinopropyl)amino)-1H-benzo[d]imidazole-7-carboximidamide] registered an EC50 of 838 nM.
Still for that read-out and setting: to `NS(=O)(=O)CCNc1nc2nccc(/C(=N/O)Nc3ccc(F)c(Cl)c3)c2[nH]1` [Example 492, N-(3-chloro-4-fluorophenyl)-N′-hydroxy-2-((2-sulfamoylethyl)amino)-1H-imidazo[4,5-b]pyridine-7-carboximidamide] belongs 5660 nM; to `O/N=C(\Nc1cccc(Br)c1)c1cc(F)c(F)c2nc(NCCN3CCCC3)[nH]c12` [Example 331, N-(3-bromophenyl)-4,5-difluoro-N′-hydroxy-2-((2-(pyrrolidin-1-yl)ethyl)amino)-1H-benzo[d]imidazole-7-carboximidamide], 692 nM.
In turn, `O/N=C(\Nc1ccc(F)c(Cl)c1)c1cc(F)c(F)c2nc(N[C@@H]3CCCN(C4COC4)C3)[nH]c12` [Example 465, (R)-N-(3-chloro-4-fluorophenyl)-4,5-difluoro-N′-hydroxy-2-((1-(oxetan-3-yl)piperidin-3-yl)amino)-1H-benzo[d]imidazole-7-carboximidamide] yielded an EC50 of 957 nM.
As for `CC(Cc1nc2nccc(/C(=N/O)Nc3ccc(F)c(Cl)c3)c2[nH]1)N(C)C` (stereo not shown) [Example 328, N-(3-chloro-4-fluorophenyl)-2-(2-(dimethylamino)propyl)-N′-hydroxy-1H-imidazo[4,5-b]pyridine-7-carboximidamide], the EC50 worked out at 3240 nM.
`CN(CCNc1nc2c(F)c(F)cc(/C(=N/O)Nc3ccc(F)c(Cl)c3)c2[nH]1)CC1CC1` [Example 398, N-(3-chloro-4-fluorophenyl)-2-((2-((cyclopropylmethyl)(methyl)amino)ethyl)amino)-4,5-difluoro-N′-hydroxy-1H-benzo[d]imidazole-7-carboximidamide] had an EC50 of 555 nM.
